In article PMC9295122, “Sialic Acid Derivatives Inhibit SiaT Transporters and Delay Bacterial Growth” (ACS Chemical Biology, 2022):
Where two headings read alike, the source gives them in different places.

How the values were obtained:
SaSiaT = SaSiaT (Staphylococcus aureus, UniProt A0A0H2XJ46); assay: nanoDSF thermal shift assay, SaSiaT; format: binding; conditions: for Average 1 / Average 2 / Average 3 / Replicate 1 / Replicate 2 / Replicate 3: SaSiaT Tm; for Average 1: average of experiment 1; for Average 2: average of experiment 2; for Average 3: average of experiment 3; for Replicate 1: experiment 1, second capillary; for Replicate 1 / Replicate 2 / Replicate 3 / Tm 1 / Tm2 / Tm 3 / Overall average (Tm): 1.25 mM; for Replicate 2: experiment 2, second capillary; for Replicate 3: experiment 3, second capillary; for Tm 1 / Tm2 / Tm 3 / Overall average (Tm): SaSiaT; for Tm 1: experiment 1, first capillary; for Tm2: experiment 2, first capillary; for Tm 3: experiment 3, first capillary; for Overall average (Tm): three experiments
Experimental: (§1) Nano-differential scanning fluorimetry (nanoDSF) is a high-throughput method that relies on the thermal stabilization of the folded protein state by a bound ligand.[33]
(§2) The melting points of protein–inhibitor complexes were measured on a Prometheus NT.48 instrument from NanoTemper Technologies. Solutions containing the protein at 2 μM in phosphate buffered saline with 0.0174% (w/v) dodecylmaltoside (DDM) and the ligand at 1.25 mM were loaded onto standard capillaries by NanoTemper. The temperature was increased from 25 to 95 °C at a ramp rate of 1 °C/min. The fluorescence was recorded at 330 and 350 nm and as a ratio of the two wavelengths.
(§3) The intensity ratio and its first derivative were calculated using manufacturer’s software (PR.ThermControl, version 2.1.2).
(§4) The melting temperatures have been measured in 3 separate experiments. In each experiment, two capillaries were included per compound, having therefore 2 technical replicates per experiment. In the table all data is presented. Tm1 and Replicate 1 represent the two replicates of the first experiment. Average 1 is the average between Tm 1 and Replicate 1. ΔTm 1 is the thermal shift when compared to the Tm of Neu5Ac. This is calculated from Average 1. The ΔTm presented in the article are the ΔTm average overall, which represent the overall average of the averages from the three experiments. The standard deviation (SD) is calculated from the […]

PmSiaT = target: T1, PmSiaT (Proteus mirabilis, UniProt B4EZY7); assay: nanoDSF thermal shift assay, PmSiaT; format: binding; conditions: for Average 1 / Average 2 / Average 3 / Replicate 1 / Replicate 2 / Replicate 3: PmSiaT Tm; for Average 1: average of experiment 1; for Average 2: average of experiment 2; for Average 3: average of experiment 3; for Replicate 1: experiment 1, second capillary; for Replicate 2: experiment 2, second capillary; for Replicate 3: experiment 3, second capillary; for Tm 1: experiment 1, first capillary; for Tm2: experiment 2, first capillary; for Tm 3: experiment 3, first capillary; for ΔTm at 1250 µM: read-out: ΔTm average overall
T1 construct: made in house
T1 sequence (B4EZY7 1-496): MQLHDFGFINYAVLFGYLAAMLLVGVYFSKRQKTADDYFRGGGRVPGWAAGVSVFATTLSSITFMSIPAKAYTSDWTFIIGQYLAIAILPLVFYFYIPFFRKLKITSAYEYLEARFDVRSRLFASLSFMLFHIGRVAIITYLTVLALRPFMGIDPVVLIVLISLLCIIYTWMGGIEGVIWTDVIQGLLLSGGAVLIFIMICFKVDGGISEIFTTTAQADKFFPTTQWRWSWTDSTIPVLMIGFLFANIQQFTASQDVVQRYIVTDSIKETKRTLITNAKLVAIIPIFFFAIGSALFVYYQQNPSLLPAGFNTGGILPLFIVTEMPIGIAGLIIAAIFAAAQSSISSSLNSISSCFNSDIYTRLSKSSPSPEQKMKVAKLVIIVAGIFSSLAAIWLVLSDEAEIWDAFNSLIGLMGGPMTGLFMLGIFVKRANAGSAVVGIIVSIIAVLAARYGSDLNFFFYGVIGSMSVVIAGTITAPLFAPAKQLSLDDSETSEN
Experimental: as §1, §2, §3, §4

[1] = PmSiaT, experiment 1, vs Neu5Ac, read-out: ΔTm 1
[2] = PmSiaT, experiment 2, vs Neu5Ac, read-out: ΔTm 2
[3] = PmSiaT, experiment 3, vs Neu5Ac, read-out: ΔTm 3
[4] = PmSiaT, three experiments, 1.25 mM
[5] = PmSiaT, three experiments, vs Neu5Ac, 1.25 mM

| Structure (SMILES) | Average 1 (SaSiaT) | Average 2 (SaSiaT) | Average 3 (SaSiaT) | Replicate 1 (SaSiaT) | Replicate 2 (SaSiaT) | Replicate 3 (SaSiaT) | Tm 1 (SaSiaT) | Tm2 (SaSiaT) | Tm 3 (SaSiaT) | Overall average (Tm) (SaSiaT) | Average 2 (PmSiaT) | Average 3 (PmSiaT) | Replicate 1 (PmSiaT; 1.25 mM) | Replicate 2 (PmSiaT; 1.25 mM) | Replicate 3 (PmSiaT; 1.25 mM) | Tm 1 (PmSiaT; PmSiaT, 1.25 mM) | ΔTm (PmSiaT; [1]) | Tm2 (PmSiaT; PmSiaT, 1.25 mM) | Tm 3 (PmSiaT; PmSiaT, 1.25 mM) | Tm average overall (PmSiaT; [4]) | further results |
| --- | --- | --- | --- | --- | --- | --- | --- | --- | --- | --- | --- | --- | --- | --- | --- | --- | --- | --- | --- | --- | --- |
| CC(=O)NC1C(OCc2ccc(F)cc2)CC(O)(C(=O)O)OC1C(O)C(O)CO (stereo not drawn) [Compound 3b] | 56.4 °C | 56.2 °C | 56.7 °C | 56.4 °C | 56.2 °C | 56.4 °C | 56.4 °C | 56.3 °C | 56.9 °C | 56.4 °C | 53.2 °C | 53.1 °C | 53.4 °C | 53.4 °C | 53.2 °C | 53.1 °C | 4.2 °C | 53.1 °C | 53.0 °C | 53.2 °C | Average 1 (PmSiaT): 53.2 °C; ΔTm (PmSiaT; [2]): 4 °C; ΔTm (PmSiaT; [3]): 3.8 °C; ΔTm at 1250 µM (PmSiaT; [5]): 4 °C |
| CC(=O)NC1C(OCc2ccc(Br)cc2)CC(O)(C(=O)O)OC1C(O)C(O)CO (stereo not drawn) [Compound 3c] | 54.2 °C | 53.5 °C | 54.5 °C | 54.4 °C | 53.5 °C | 54.4 °C | 54.1 °C | 53.5 °C | 54.5 °C | 54.1 °C | 55.9 °C | 56.0 °C | 56.7 °C | 56.0 °C | 56.1 °C | 56.6 °C | 7.7 °C | 55.8 °C | 56.0 °C | 56.2 °C | Average 1 (PmSiaT): 56.7 °C; ΔTm (PmSiaT; [2]): 6.7 °C; ΔTm (PmSiaT; [3]): 6.7 °C; ΔTm at 1250 µM (PmSiaT; [5]): 7 °C |
| CC(=O)NC1C(OCc2ccc(C#N)cc2)CC(O)(C(=O)O)OC1C(O)C(O)CO (stereo not drawn) [Compound 3d] | 54.4 °C | 53.6 °C | 53.0 °C | 54.3 °C | 53.6 °C | 53.9 °C | 54.4 °C | 53.6 °C | 52.0 °C | 53.7 °C | 53.7 °C | 54.1 °C | 55.4 °C | 53.8 °C | 54.1 °C | 55.2 °C | 6.3 °C | 53.6 °C | 54.2 °C | 54.4 °C | Average 1 (PmSiaT): 55.3 °C; ΔTm (PmSiaT; [2]): 4.5 °C; ΔTm (PmSiaT; [3]): 4.8 °C; ΔTm at 1250 µM (PmSiaT; [5]): 5.2 °C |
| O=C(CF)NC1C(O)CC(O)(C(=O)O)OC1C(O)C(O)CO (stereo not drawn) [Compound 6f] | 52.0 °C | 51.2 °C | 51.9 °C | 52.0 °C | 51.2 °C | 51.8 °C | 52.0 °C | 51.2 °C | 52.1 °C | 51.7 °C | 47.6 °C | 47.4 °C | 47.4 °C | 47.6 °C | 47.3 °C | 47.4 °C | – | 47.7 °C | 47.4 °C | 47.5 °C | Average 1 (PmSiaT): 47.4 °C; ΔTm at 1250 µM (PmSiaT): -1.7 °C |

Continued, in another order:

| Average 1 (SaSiaT) | Average 2 (SaSiaT) | Average 3 (SaSiaT) | Replicate 1 (SaSiaT) | Replicate 2 (SaSiaT) | Replicate 3 (SaSiaT) | Tm 1 (SaSiaT) | Tm2 (SaSiaT) | Tm 3 (SaSiaT) | Overall average (Tm) (SaSiaT) | Average 2 (PmSiaT) | Average 3 (PmSiaT) | Replicate 1 (PmSiaT; 1.25 mM) | Replicate 2 (PmSiaT; 1.25 mM) | Replicate 3 (PmSiaT; 1.25 mM) | Tm 1 (PmSiaT; PmSiaT, 1.25 mM) | ΔTm (PmSiaT; [1]) | Tm2 (PmSiaT; PmSiaT, 1.25 mM) | Tm 3 (PmSiaT; PmSiaT, 1.25 mM) | Tm average overall (PmSiaT; [4]) | Structure (SMILES) | further results |
| --- | --- | --- | --- | --- | --- | --- | --- | --- | --- | --- | --- | --- | --- | --- | --- | --- | --- | --- | --- | --- | --- |
| 40.8 °C | 41.9 °C | 42.2 °C | 40.9 °C | 41.8 °C | 42.1 °C | 40.8 °C | 42.0 °C | 42.3 °C | 41.6 °C | 46.8 °C | 46.7 °C | 46.8 °C | 46.8 °C | 46.6 °C | 46.8 °C | -2.2 °C | 46.8 °C | 46.7 °C | 46.8 °C | CCC(=O)NC1C(O)CC(O)(C(=O)O)OC1C(O)C(O)CO (stereo not drawn) [Compound 6a] | ΔTm (PmSiaT; [2]): -2.4 °C; ΔTm (PmSiaT; [3]): -2.6 °C; ΔTm at 1250 µM (PmSiaT; [5]): -2.4 °C |
| 45.1 °C | 44.6 °C | 45.2 °C | 45.0 °C | 44.6 °C | 45.1 °C | 45.1 °C | 44.6 °C | 45.3 °C | 45.0 °C | 47.1 °C | 47.0 °C | 47.1 °C | 47.0 °C | 47.0 °C | 47.1 °C | -1.9 °C | 47.2 °C | 47.0 °C | 47.1 °C | CC(C)C(=O)NC1C(O)CC(O)(C(=O)O)OC1C(O)C(O)CO (stereo not drawn) [Compound 6b] | ΔTm (PmSiaT; [2]): -2.1 °C; ΔTm (PmSiaT; [3]): -2.3 °C; ΔTm at 1250 µM (PmSiaT; [5]): -2.1 °C |
| 43.5 °C | 44.2 °C | 43.8 °C | 43.4 °C | 44.1 °C | 43.6 °C | 43.6 °C | 44.2 °C | 43.9 °C | 43.8 °C | 46.7 °C | 46.7 °C | 46.3 °C | 46.7 °C | 46.6 °C | 46.6 °C | -2.5 °C | 46.7 °C | 46.7 °C | 46.6 °C | CC(C)(C)C(=O)NC1C(O)CC(O)(C(=O)O)OC1C(O)C(O)CO (stereo not drawn) [Compound 6c] | ΔTm (PmSiaT; [2]): -2.5 °C; ΔTm (PmSiaT; [3]): -2.6 °C; ΔTm at 1250 µM (PmSiaT; [5]): -2.5 °C |
| 46.2 °C | 45.6 °C | 46.0 °C | 46.1 °C | 45.8 °C | 45.6 °C | 46.2 °C | 45.4 °C | 46.4 °C | 45.9 °C | 45.9 °C | 45.7 °C | 45.2 °C | 45.9 °C | 45.9 °C | 45.1 °C | -3.8 °C | 45.8 °C | 45.5 °C | 45.6 °C | O=C(NC1C(O)CC(O)(C(=O)O)OC1C(O)C(O)CO)c1ccccc1 (stereo not drawn) [Compound 6d] | Average 1 (PmSiaT): 45.2 °C; ΔTm (PmSiaT; [2]): -3.3 °C; ΔTm (PmSiaT; [3]): -3.6 °C; ΔTm at 1250 µM (PmSiaT; [5]): -3.6 °C |
| 51.2 °C | 51.0 °C | 51.4 °C | 51.3 °C | 51.1 °C | 51.1 °C | 51.2 °C | 51.0 °C | 51.8 °C | 51.2 °C | 46.2 °C | 46.0 °C | 45.5 °C | 46.0 °C | 45.9 °C | 45.2 °C | -3.6 °C | 46.3 °C | 46.1 °C | 45.8 °C | O=C(Cc1ccccc1)NC1C(O)CC(O)(C(=O)O)OC1C(O)C(O)CO (stereo not drawn) [Compound 6e] | Average 1 (PmSiaT): 45.4 °C; ΔTm (PmSiaT; [2]): -3 °C; ΔTm (PmSiaT; [3]): -3.3 °C; ΔTm at 1250 µM (PmSiaT; [5]): -3.3 °C |
